Assays:
Details in all cases: male, C57BL/6, mouse
PCLS = experiment: Cytotoxicity analysis - dose selection experiments (LDH, ATP, protein assay)
Description: (§1) 23-weeks old male C57BL/6 mice were obtained from Harlan (Horst, The Netherlands). Animals were kept for 1 week at a housing temperature of 22°C and at a relative humidity of 30-70%. The lighting cycle was 12-h light and 12-h dark. At the age of 24 weeks animals were sacrificed by an overdose of isoflurane. The treatment protocol was approved by the Ethical Committee for Animal Experiments at Wageningen University.
(§2) Immediately after the animals were killed the liver was perfused with PBS and placed in ice-cold Krebs-Henseleit buffer (KHB) (pH 7.4, supplemented with 11 mM glucose). Liver tissue was transported to the laboratory within approximately 30 min and cylindrical liver cores were produced using a surgical biopsy punch with diameter of 5 mm (KAI, SynErgo Europe, Romania). Liver cores were placed in a Krumdieck tissue slicer (Alabama Research and Development, Munford, AL) filled with ice-cold KHB aerated with carbogen and supplemented with 11 mM glucose. Precesion cut liver slices (PCLS) with a diameter of 5 mm, a thickness of 0.2 mm and a weight of approximately 10 mg were prepared. Immediately after preparation, slices were transferred into culture plates filled with pre-warmed (37 degrees C) Williams E medium (WEM). Three liver slices were pre-cultured in one well of the 6-well plate filled with 4 ml of WEM for one hour with continuous shaking (70 rpm). Incubations were performed in an oxygen controlled incubator (Galaxy 48 R New Brunswick, Nijmegen, the Netherlands) at 80% of oxygen; 5% CO2 and the remaining gas volume was filled up to […] with N2. After one hour of pre-incubation, media were removed and replaced with fresh media containing test compounds or appropriate solvents. After incubations, samples were snap-frozen in liquid nitrogen and stored in -80 °C for further analysis. Samples dedicated to histology were stored in 4 % formaldehyde at room temperature.
(§3) PCLS were incubated at the same conditions as described above. Slices were exposed for 24 and 48 hours to one concentration of the tested compounds or controls. Concentrations used in the exposure experiments were preselected in the dose selection experiments for each drug individually. […] For the necrotic compounds: 1000 uM acetaminophen, 5 µM paraquat and 1000 uM isoniazid. Liver slices obtained from five mice were used in five toxic compound or control exposure experiments performed at the same time. Dose selection experiments and exposure experiments were performed at different days. Therefore, ATP, LDH, and protein assays were performed again for the exposure experiments to confirm that the selected doses did also not affect slice viability in these experiments.

Parp16 = experiment: Biomarkers validation by q-pcr in precision cut liver slices: Parp16 expression
Description: as §1, §2, §3
(§4) In further studies, expression of ten candidate biomarkers in PCLS was analyzed by q-pcr using the Biorad CFX96 TM Real-Time Detection System (Bio-Rad, Veenendaal, The Netherlands) with the following cycling conditions: 15 min 95°C followed by 40 cycles of 15s 95 °C and 1 min 60 °C. Reactions were performed in 10 µl and contained 20 ng cDNA, 1x TaqMan PCR Master Mix (Applied Biosystems, Foster City, CA), and depending on the analysed gene, 250 nM probe and 900 nM primer (for actin b) or 1xTaqMan gene expression assay (for the remaining genes) (Applied Biosystems, foster City, CA).

ABCG5 = experiment: Biomarkers validation by q-pcr in precision cut liver slices: ABCG5 expression
Description: as §1, §2, §3, §4

Nme6 = experiment: Biomarkers validation by q-pcr in precision cut liver slices: Nme6 expression
Description: as §1, §2, §3, §4

KLF15 = experiment: Biomarkers validation by q-pcr in precision cut liver slices: KLF15 expression
Description: as §1, §2, §3, §4

SERPINE1 = experiment: Biomarkers validation by q-pcr in precision cut liver slices: SERPINE1 expression
Description: as §1, §2, §3, §4

BAAT = experiment: Biomarkers validation by q-pcr in precision cut liver slices: BAAT expression
Description: as §1, §2, §3, §4

Mras = experiment: Biomarkers validation by q-pcr in precision cut liver slices: Mras expression
Description: as §1, §2, §3, §4

ABCG8 = experiment: Biomarkers validation by q-pcr in precision cut liver slices: ABCG8 expression
Description: as §1, §2, §3, §4

Myo1e = experiment: Biomarkers validation by q-pcr in precision cut liver slices: Myo1e expression
Description: as §1, §2, §3, §4

Bcl2l11 = experiment: Biomarkers validation by q-pcr in precision cut liver slices: Bcl2l11 expression
Description: as §1, §2, §3, §4

CN(C)CCCN1c2ccccc2Sc2ccc(Cl)cc21 [CPZ, chlorpromazine] was tested, and the “highest concentration that did not cause significant increase of toxicity” value (PCLS) was 10 µM, the “*fold change 1, gene expression level Parp 16” value (Parp16) was -1,1 and the “*fold change 2, gene expression level Parp 16” value (Parp16) was -1,4. The “*fold change 3, gene expression level Parp 16” value (Parp16) was -1,1, the “*fold change 4, gene expression level Parp 16” value (Parp16) was -1,4 and the “*fold change 5, gene expression level Parp 16” value (Parp16) was -1,0. The “*fold change 1, gene expression level ABCG5” value (ABCG5) was -4,2, the “*fold change 2, gene expression level ABCG5” value (ABCG5) was -2,9 and the “*fold change 3, gene expression level ABCG5” value (ABCG5) was -6,7. The “*fold change 4, gene expression level ABCG5” value (ABCG5) was -3,8, the “*fold change 5, gene expression level ABCG5” value (ABCG5) was -1,0 and the “*fold change 1, gene expression level Nme6” value (Nme6) was 1,1. The “*fold change 2, gene expression level Nme6” value (Nme6) was 1,3, the “*fold change 3, gene expression level Nme6” value (Nme6) was 1,7 and the “*fold change 4, gene expression level Nme6” value (Nme6) was 1,3. For the same compound, the “*fold change 5, gene expression level Nme6” value (Nme6) was 1,2, the “*fold change 1, gene expression level KLF15” value (KLF15) was -2,0 and the “*fold change 2, gene expression level KLF15” value (KLF15) was -1,8. The “*fold change 3, gene expression level KLF15” value (KLF15) was -3,2, the “*fold change 4, gene expression level KLF15” value (KLF15) was -1,8 and the “*fold change 5, gene expression level KLF15” value (KLF15) was 1,6. The “*fold change 1, gene expression level SERPINE1” value (SERPINE1) was 2,9, the “*fold change 2, gene expression level SERPINE1” value (SERPINE1) was -1,4 and the “*fold change 3, gene expression level SERPINE1” value (SERPINE1) was -4,7. The “*fold change 4, gene expression level SERPINE1” value (SERPINE1) was -5,8, the “*fold change 5, gene expression level SERPINE1” value (SERPINE1) was -1,8 and the “*fold change 1, gene expression level BAAT” value (BAAT) was -2,3. For the same compound, the “*fold change 2, gene expression level BAAT” value (BAAT) was -3,3, the “*fold change 3, gene expression level BAAT” value (BAAT) was -8,5 and the “*fold change 4, gene expression level BAAT” value (BAAT) was -6,4. For the same compound, the “*fold change 5, gene expression level BAAT” value (BAAT) was 1,4, the “*fold change 1, gene expression level Mras” value (Mras) was 1,3 and the “*fold change 2, gene expression level Mras” value (Mras) was 2,0. The “*fold change 3, gene expression level Mras” value (Mras) was 2,6, the “*fold change 4, gene expression level Mras” value (Mras) was 1,4 and the “*fold change 5, gene expression level Mras” value (Mras) was 1,1. The “*fold change 1, gene expression level ABCG8” value (ABCG8) was -2,9, the “*fold change 2, gene expression level ABCG8” value (ABCG8) was -2,1 and the “*fold change 3, gene expression level ABCG8” value (ABCG8) was -5,4. The “*fold change 4, gene expression level ABCG8” value (ABCG8) was -4,5, the “*fold change 5, gene expression level ABCG8” value (ABCG8) was -1,1 and the “*fold change 1, gene expression level Myo 1e” value (Myo1e) was -1,1. For the same compound, the “*fold change 2, gene expression level Myo 1e” value (Myo1e) was -1,0, the “*fold change 3, gene expression level Myo 1e” value (Myo1e) was 1,1 and the “*fold change 4, gene expression level Myo 1e” value (Myo1e) was 1,0. The “*fold change 5, gene expression level Myo 1e” value (Myo1e) was -1,1, the “*fold change 1, gene expression level Bcl2111” value (Bcl2l11) was -1,2 and the “*fold change 2, gene expression level Bcl2111” value (Bcl2l11) was -1,4. For the same compound, the “*fold change 3, gene expression level Bcl2111” value (Bcl2l11) was -1,2, the “*fold change 4, gene expression level Bcl2111” value (Bcl2l11) was -1,9 and the “*fold change 5, gene expression level Bcl2111” value (Bcl2l11) was -2,3.

CCCC(CCC)C(=O)O [VA, valproic acid] was tested, and the “highest concentration that did not cause significant increase of toxicity” value (PCLS) was 200 µM.

From EP2762573A1, “In vitro method for determining cholestatic properties of a compound” (priority 2013, dated 2014)
